From ChEMBL document CHEMBL5120814, “Molecular Networking-Based Screening Led to the Discovery of a Cyclic Heptadepsipeptide from an Endolichenic Xylaria sp” (J Nat Prod, 2022)
pIC50: −log10 of the molar value.

Assays:
BT-549 [1] = test: Induction of cell cycle arrest in human BT-549 cells assessed as accumulation at G0/G1 phase at 5 uM incubated for 24 hrs by propidium iodide staining based flow cytometry (reference value: 22.97%); format: functional
NCI-H1299 = test: Cytotoxicity against human NCI-H1299 cells assessed as inhibition of cell proliferation incubated for 48 hrs by MTT assay; format: functional, cell-based; settings: NCI-H1299, 48 h
BT-549 [2] = test: Induction of cell cycle arrest in human BT-549 cells assessed as accumulation at G2/M phase at 5 uM incubated for 24 hrs by propidium iodide staining based flow cytometry (reference value: 22.59%); format: functional
RKO = test: Cytotoxicity against human RKO cells assessed as inhibition of cell proliferation incubated for 48 hrs by MTT assay; format: functional, cell-based
PC-9 = test: Cytotoxicity against human PC-9 cells assessed as inhibition of cell proliferation incubated for 48 hrs by MTT assay; format: functional, cell-based; settings: PC-9, 48 h
[3] = Selectivity ratio of IC50 for cytotoxicity against human HMLE cells to IC50 for cytotoxicity against human BT-549 cells; format: toxicity, cell-based; settings: HMLE cells and BT-549 cells, read-out: Ratio IC50
[4] = Cytotoxicity against human HMLE cells assessed as inhibition of cell proliferation incubated for 48 hrs by MTT assay; format: toxicity, cell-based
HT-29 = test: Cytotoxicity against human HT-29 cells assessed as inhibition of cell proliferation incubated for 48 hrs by MTT assay; format: functional, cell-based; settings: HT-29, 48 h
BT-549 [5] = test: Potency index, ratio of cisplatin IC50 to test compound IC50 for cytotoxicity against human BT-549 cells; format: functional
BT-549 [6] = test: Cytotoxicity against human BT-549 cells assessed as inhibition of cell proliferation incubated for 48 hrs by MTT assay; format: functional, cell-based; settings: BT-549, 48 h
BT-549 [7] = test: Induction of cell cycle arrest in human BT-549 cells assessed as accumulation at S phase at 5 uM incubated for 24 hrs by propidium iodide staining based flow cytometry (reference value: 50.87%); format: functional

CC[C@H](C)[C@H]1NC(=O)[C@@H](CC(C)C)NC(=O)[C@@H](CC(C)C)N(C)C(=O)[C@@H]2CCCN2C(=O)[C@H](CC(C)C)NC(=O)[C@H](Cc2ccccc2)OC(=O)[C@@H]2CCCN2C1=O
Activity (BT-549 [1]): 41.84%
pIC50 (NCI-H1299): 5.60
Activity (BT-549 [2]): 18.34%
pIC50 (RKO): 5.02
pIC50 (PC-9): 5.60
selectivity ratio [3]: 3
IC50 at 48 h [4]: 7.3 µM
pIC50 (HT-29): 5.60
Ratio IC50 (BT-549 [5]): 3.4
pIC50 (BT-549 [6]): 5.60
Activity (BT-549 [7]): 32.49%
